This is an account of results in patent US9433212B2, “Plant growth regulator and method for using the same” (NIHON NOHYAKU CO., LTD., priority 2011, dated 2016).

Holding throughout (format): in vivo
The subject of one test is paddy rice plants. As to the kind of experiment: Test Example 1: increase in stem number (promotion of tillering) of paddy rice plants. Conditions: for Stem number/plant: 43 days after transplantation; for Percentage of increase in stem number: non-treatment = 100. The text has this:
(§1) Paddy rice plants were transplanted to an experimental paddy field (50 m^2, planted with 1250 paddy rice plants on average), and 10 days later, granules containing flubendiamide as an active ingredient were applied once at the predetermined doses. At 43 days after the transplantation, in 10 rice plants chosen at random, the percentage of Scirpophaga incertulas-caused dead hearts per plant, the percentage of control of Scirpophaga incertulas, the stem number per plant, and the percentage of increase in the stem number were measured. To exclude the positive effect of the insecticidal action of flubendiamide on the growth of paddy rice plants, chlorantraniliprole, which has an equivalent insecticidal action, was used as a control agrochemical.

Another test concerns Scirpophaga incertulas. As to the kind of experiment: Test Example 1: control of Scirpophaga incertulas (dead hearts) in paddy field. Conditions: for Percentage of control of S. incertulas: 43 days after transplantation; for Percentage of S. incertulas-caused dead hearts: applied once 10 days after transplantation, assessed 43 days after transplantation.
Text: as §1

The subject of test [1] is germinating rice seeds (variety: Nihonbare). As to the kind of experiment: Test Example 2: rooting promotion and plant height growth in paddy rice plants (agar test). The note with it: 25 ppm in 0.7% agar, 8 days after seeding. How it is done:
A 0.7% agar solution containing 25 ppm of flubendiamide was poured into a glass cylinder (3 cm diameter×10 cm) and allowed to be solidified. Onto the solidified agar, ten germinating rice seeds (variety: Nihonbare) were sown. Then, the top of the cylinder was covered with Japanese paper and the cylinder was placed in a thermostatic chamber (light-dark cycle: 16 hours of light and 8 hours of dark, relative humidity: 60 to 70%) at 25° C. At 8 days after the seeding, the lengths of the longest root (primary root) and the stem-and-leaf part extending from each seed-rice were measured and the averages were calculated. The percentages of elongation were also calculated with the proviso that the non-treatment levels were set as 100.

For test [2], the system named is rice plants (variety: Takanari). As to the kind of experiment: Test Example 3: yield increase (numbers of panicles and unhulled rice grains) of paddy rice plants. Conditions: for Panicle number/plant / Unhulled rice grain number/plant: harvest at 100 days; for Percentage of increase (panicle number) / Percentage of increase (unhulled rice grain number): non-treatment = 100. Here is the method: Rice plants (variety: Takanari) of the 6.5- to 7-leaf stage were transplanted to 1-m^2 plots of a paddy field, and 2 or 12 days later, flubendiamide granules were applied at the predetermined doses. The test was performed in 4 replications. At 100 days after the transplantation, the rice plants were harvested, the numbers of panicles and unhulled rice grains per plant were measured and the averages were calculated. The percentages of increase were also calculated with the proviso that the non-treatment levels were set as 100.

[3] abbreviates: 35 g a.i./ha granules applied 2 days after transplantation.
The mark [4] stands for this setting: 35 g a.i./ha granules applied 12 days after transplantation.
[5] abbreviates: 35 g a.i./ha, applied 2 days after transplantation.
The mark [6] stands for this setting: 35 g a.i./ha, applied 12 days after transplantation.
The mark [7] stands for this setting: 70 g a.i./ha granules applied 2 days after transplantation.
[8] abbreviates: 70 g a.i./ha granules applied 12 days after transplantation.
The mark [9] stands for this setting: 70 g a.i./ha, applied 2 days after transplantation.
Where [10] appears, read: 70 g a.i./ha, applied 12 days after transplantation.
The mark [11] stands for this setting: regardless of application time and dose.

SMILES strings stand for the structures.

Consider `CNC(=O)c1cc(Cl)cc(C)c1NC(=O)c1cc(Br)nn1-c1ncccc1Cl` [Chlorantraniliprole], for which, in the test with paddy rice plants (40 g a.i./ha), the Stem number/plant was 26.35 /plant and the “Percentage of increase in stem number” value came out at 119%. In addition, the “Percentage of increase in stem number” value in the test on paddy rice plants (40 g a.i./ha, listed as chlorantraniliprole) is listed as “about 120%”. In addition, the “Increase in stem number per plant compared with the non-treatment level” value with paddy rice plants (chlorantraniliprole treatment plot (40 g a.i./ha)) is listed as “about four”. Further, in the test with Scirpophaga incertulas (40 g a.i./ha), the “Percentage of control of S. incertulas” value was determined as 90.2% and the “Percentage of S. incertulas-caused dead hearts” value worked out at 0.37%.

`Cc1cc(C(F)(C(F)(F)F)C(F)(F)F)ccc1NC(=O)c1cccc(I)c1C(=O)NC(C)(C)CS(C)(=O)=O` [Flubendiamide, 3-iodo-N′-(2-mesyl-1,1-dimethylethyl)-N-{4-[1,2,2,2-tetrafluoro-1-(trifluoromethyl)ethyl]-o-tolyl}phthalamide] yielded an Average root length in test [1] (25° C.) of 6.7 cm. This molecule also registered an Average stem-and-leaf length in test [1] (25° C.) of 3.9 cm. In addition, in test [1] (non-treatment = 100), the “Percentage of elongation in root length” value is listed as 160%. Besides, the “Percentage of elongation in stem-and-leaf length” value in test [1] (non-treatment = 100) amounted to 170%. The Panicle number/plant in test [2] (setting [3]) was 10.4 /plant; in test [2] (setting [4]), 11.9 /plant; in test [2] (setting [7]), 11.2 /plant; in test [2] (setting [8]), 12.5 /plant. The “Unhulled rice grain number/plant” value is given as 1360.3 /plant in test [2] (setting [3]), 1528.0 /plant in test [2] (setting [4]), 1484.0 /plant in test [2] (setting [7]) and 1600.0 /plant in test [2] (setting [8]). In addition, the “Percentage of increase (panicle number)” value in test [2] (setting [5]) is given as 110%; in test [2] (setting [6]), 126%; in test [2] (setting [9]) it was 119%; in test [2] (setting [10]), 132%. The “Percentage of increase (unhulled rice grain number)” value was determined as 110% in test [2] (setting [5]), 124% in test [2] (setting [6]), 120% in test [2] (setting [9]) and 130% in test [2] (setting [10]). In test [2] (setting [11]), the “Numbers of panicles versus non-treatment levels” value is “significantly increased”. In addition, in test [2] (setting [11]), the “Numbers of unhulled rice grains versus non-treatment levels” value is listed as “significantly increased”. The values for the Stem number/plant with paddy rice plants (70 g a.i./ha), in the test with paddy rice plants (90 g a.i./ha) and in the test with paddy rice plants (120 g a.i./ha) were 39.6 /plant, 38.0 /plant and 39.15 /plant, respectively. The “Percentage of increase in stem number” value with paddy rice plants (70 g a.i./ha) worked out at 178%; in the test on paddy rice plants (90 g a.i./ha), 171%; in the test with paddy rice plants (120 g a.i./ha), 176%. The “Increase in stem number per plant compared with the non-treatment level” value in the test with paddy rice plants (flubendiamide treatment plots, regardless of dose (70-120 g a.i./ha)) was “about 17”. For the same molecule, the results for the “Percentage of S. incertulas-caused dead hearts” value in the test with Scirpophaga incertulas (70 g a.i./ha granules), with Scirpophaga incertulas (90 g a.i./ha granules) and in the test on Scirpophaga incertulas (120 g a.i./ha granules) were 0.48%, 0.34% and 0.30%, respectively. Besides, the “Percentage of control of S. incertulas” value with Scirpophaga incertulas (70 g a.i./ha) came out at 87.3%; in the test with Scirpophaga incertulas (90 g a.i./ha) it was 91.0%; with Scirpophaga incertulas (120 g a.i./ha), 92.1%.
